Experiment [1] concerns the target T1, Mitogen-activated protein kinase kinase kinase 6 (Homo sapiens, UniProt O95382).
T1 sequence (O95382 whole entry): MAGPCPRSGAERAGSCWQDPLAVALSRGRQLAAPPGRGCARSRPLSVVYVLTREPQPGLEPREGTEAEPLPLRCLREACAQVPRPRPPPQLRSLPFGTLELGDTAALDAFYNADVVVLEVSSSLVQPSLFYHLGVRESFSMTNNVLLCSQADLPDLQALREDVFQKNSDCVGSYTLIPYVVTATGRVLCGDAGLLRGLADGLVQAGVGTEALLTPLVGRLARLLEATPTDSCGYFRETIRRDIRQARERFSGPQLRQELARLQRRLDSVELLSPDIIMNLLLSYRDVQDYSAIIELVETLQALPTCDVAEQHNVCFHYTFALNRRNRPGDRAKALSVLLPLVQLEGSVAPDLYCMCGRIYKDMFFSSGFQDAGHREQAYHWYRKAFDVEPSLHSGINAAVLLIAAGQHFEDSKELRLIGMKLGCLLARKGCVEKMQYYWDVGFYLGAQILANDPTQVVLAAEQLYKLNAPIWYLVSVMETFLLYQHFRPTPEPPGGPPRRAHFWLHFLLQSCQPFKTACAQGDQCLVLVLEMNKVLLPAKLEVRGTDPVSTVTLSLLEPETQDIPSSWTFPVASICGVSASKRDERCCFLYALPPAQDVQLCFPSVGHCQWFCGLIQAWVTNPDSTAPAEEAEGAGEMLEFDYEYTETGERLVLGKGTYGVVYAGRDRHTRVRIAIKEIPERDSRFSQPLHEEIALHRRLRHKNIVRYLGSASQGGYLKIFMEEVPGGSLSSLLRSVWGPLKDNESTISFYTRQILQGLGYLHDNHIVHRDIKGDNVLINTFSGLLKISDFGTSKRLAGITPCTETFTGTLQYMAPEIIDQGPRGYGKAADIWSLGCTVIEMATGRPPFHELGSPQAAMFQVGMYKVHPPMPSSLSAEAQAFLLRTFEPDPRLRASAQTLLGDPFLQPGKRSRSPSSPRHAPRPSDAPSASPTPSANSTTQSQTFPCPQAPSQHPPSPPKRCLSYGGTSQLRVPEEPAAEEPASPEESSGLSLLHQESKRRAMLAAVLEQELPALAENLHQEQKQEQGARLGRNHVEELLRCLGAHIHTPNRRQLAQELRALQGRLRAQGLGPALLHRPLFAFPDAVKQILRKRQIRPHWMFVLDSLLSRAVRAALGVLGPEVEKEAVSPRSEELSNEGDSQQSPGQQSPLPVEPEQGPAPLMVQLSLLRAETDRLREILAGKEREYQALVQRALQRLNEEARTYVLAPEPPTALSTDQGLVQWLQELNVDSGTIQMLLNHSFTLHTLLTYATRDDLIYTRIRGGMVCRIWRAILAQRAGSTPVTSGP

The target of the next experiment is T2, Rab-like protein 3 (Homo sapiens, UniProt Q5HYI8).
T2 sequence (Q5HYI8 whole entry): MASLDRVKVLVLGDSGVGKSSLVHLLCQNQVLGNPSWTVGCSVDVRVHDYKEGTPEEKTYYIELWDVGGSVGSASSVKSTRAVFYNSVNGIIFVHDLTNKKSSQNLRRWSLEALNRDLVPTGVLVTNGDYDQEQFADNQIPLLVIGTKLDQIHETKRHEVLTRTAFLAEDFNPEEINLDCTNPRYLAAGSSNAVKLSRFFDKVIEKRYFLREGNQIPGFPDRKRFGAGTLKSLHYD

Experiment [2] has as its target Rho-associated protein kinase 2 (Homo sapiens, UniProt O75116).
Experiment [3] deals with T3, Serine/threonine-protein kinase ULK1 (Homo sapiens, UniProt O75385).
T3 sequence (O75385 whole entry): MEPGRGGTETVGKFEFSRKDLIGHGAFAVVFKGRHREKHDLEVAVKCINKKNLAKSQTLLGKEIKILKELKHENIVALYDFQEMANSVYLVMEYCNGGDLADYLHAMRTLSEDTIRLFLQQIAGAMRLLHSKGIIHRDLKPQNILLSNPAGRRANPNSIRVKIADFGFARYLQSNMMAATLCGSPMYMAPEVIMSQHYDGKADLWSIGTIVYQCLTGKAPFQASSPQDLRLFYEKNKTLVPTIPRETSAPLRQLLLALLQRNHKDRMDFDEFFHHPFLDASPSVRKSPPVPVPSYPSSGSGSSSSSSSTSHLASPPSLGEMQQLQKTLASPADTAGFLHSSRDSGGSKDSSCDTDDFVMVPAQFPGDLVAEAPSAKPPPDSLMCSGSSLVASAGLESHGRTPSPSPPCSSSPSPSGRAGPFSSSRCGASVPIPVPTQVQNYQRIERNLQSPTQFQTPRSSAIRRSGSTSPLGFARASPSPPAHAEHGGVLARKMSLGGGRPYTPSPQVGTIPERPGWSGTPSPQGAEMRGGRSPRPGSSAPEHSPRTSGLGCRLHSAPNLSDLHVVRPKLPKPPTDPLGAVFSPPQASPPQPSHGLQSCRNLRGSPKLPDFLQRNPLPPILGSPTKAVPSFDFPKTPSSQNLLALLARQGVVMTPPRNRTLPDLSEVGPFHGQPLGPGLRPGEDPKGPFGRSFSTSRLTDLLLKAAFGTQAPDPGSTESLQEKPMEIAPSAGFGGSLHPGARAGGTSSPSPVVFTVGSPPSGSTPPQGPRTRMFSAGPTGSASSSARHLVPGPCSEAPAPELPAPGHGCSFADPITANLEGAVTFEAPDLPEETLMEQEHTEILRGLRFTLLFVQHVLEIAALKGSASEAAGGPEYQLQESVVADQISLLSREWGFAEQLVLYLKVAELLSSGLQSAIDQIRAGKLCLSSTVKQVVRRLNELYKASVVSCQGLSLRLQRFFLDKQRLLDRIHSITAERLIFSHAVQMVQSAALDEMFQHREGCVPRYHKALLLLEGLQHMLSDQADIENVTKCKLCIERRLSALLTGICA

In experiment [4] the target is Citron Rho-interacting kinase (Homo sapiens, UniProt O14578).
Experiment [5] concerns the target 26S proteasome regulatory subunit 6B (Homo sapiens, UniProt P43686).
Experiment [6] concerns the target Mitogen-activated protein kinase 10 (Homo sapiens, UniProt P53779).

The source of these data is ChEMBL document CHEMBL3991601, “The target landscape of clinical kinase drugs” (Science, 2017).

Active and inactive are the calls of the source. For most assays here, no stated cut-off is given here; in the data, actives have a measured Kd and inactives only a lower limit. Bounds are passed on as bounds.

Sequence of 26S proteasome regulatory subunit 6B (P43686 whole entry): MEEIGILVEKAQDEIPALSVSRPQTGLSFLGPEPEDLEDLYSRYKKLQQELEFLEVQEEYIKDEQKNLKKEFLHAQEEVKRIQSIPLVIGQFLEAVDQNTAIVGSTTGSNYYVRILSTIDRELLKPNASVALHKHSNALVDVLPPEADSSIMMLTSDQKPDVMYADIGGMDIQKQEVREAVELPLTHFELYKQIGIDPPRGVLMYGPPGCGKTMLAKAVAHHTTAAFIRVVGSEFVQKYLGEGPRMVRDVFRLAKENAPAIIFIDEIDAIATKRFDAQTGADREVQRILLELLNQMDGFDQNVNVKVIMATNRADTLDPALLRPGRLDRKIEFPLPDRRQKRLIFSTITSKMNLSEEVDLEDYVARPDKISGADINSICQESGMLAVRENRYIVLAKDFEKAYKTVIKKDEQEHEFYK
Sequence of Mitogen-activated protein kinase 10 (P53779 whole entry): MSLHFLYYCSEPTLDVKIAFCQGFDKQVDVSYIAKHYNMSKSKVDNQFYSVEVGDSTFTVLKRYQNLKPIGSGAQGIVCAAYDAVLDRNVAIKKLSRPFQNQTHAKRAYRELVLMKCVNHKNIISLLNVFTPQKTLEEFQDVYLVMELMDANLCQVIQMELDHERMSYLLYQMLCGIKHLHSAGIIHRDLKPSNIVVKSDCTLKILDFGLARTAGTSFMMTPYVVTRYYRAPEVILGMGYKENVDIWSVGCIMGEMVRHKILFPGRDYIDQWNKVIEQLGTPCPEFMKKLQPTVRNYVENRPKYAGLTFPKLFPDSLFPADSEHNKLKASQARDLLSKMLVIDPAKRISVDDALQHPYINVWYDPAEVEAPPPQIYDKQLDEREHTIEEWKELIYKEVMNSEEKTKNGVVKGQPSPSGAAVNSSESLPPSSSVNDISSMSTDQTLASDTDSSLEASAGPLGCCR
Sequence of Rho-associated protein kinase 2 (O75116 whole entry): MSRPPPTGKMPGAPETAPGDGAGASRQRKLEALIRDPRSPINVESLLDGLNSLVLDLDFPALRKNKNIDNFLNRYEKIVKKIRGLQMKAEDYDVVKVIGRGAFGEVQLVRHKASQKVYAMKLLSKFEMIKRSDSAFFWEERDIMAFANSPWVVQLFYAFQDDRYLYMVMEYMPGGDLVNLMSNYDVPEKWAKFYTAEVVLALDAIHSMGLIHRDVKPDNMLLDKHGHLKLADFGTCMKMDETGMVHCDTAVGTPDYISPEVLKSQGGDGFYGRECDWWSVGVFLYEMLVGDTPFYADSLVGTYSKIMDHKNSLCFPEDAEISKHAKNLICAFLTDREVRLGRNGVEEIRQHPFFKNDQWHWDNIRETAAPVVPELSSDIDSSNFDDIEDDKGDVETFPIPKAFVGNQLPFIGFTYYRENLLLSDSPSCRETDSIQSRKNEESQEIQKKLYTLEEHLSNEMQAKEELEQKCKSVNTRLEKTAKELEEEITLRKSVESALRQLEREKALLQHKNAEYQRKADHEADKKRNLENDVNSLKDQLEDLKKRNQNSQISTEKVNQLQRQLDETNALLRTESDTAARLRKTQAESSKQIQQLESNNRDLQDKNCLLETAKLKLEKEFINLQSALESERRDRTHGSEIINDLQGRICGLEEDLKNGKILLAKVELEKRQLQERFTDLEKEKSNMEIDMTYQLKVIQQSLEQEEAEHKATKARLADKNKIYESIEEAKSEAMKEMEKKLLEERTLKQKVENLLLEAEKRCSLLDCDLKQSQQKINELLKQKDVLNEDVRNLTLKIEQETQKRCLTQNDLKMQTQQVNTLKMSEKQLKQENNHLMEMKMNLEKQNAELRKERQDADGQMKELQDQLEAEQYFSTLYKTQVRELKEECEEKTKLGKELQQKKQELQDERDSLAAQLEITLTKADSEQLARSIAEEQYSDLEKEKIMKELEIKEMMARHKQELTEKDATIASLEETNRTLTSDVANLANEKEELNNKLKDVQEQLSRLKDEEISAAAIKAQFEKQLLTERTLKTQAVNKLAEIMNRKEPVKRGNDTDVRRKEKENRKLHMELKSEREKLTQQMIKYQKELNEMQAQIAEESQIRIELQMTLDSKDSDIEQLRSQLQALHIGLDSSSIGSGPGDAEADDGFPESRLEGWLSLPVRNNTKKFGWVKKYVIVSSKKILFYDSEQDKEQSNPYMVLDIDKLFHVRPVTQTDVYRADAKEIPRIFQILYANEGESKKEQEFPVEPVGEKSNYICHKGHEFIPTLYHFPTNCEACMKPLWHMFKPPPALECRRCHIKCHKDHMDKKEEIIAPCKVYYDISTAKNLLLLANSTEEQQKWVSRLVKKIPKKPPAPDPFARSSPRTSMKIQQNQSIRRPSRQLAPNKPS
Sequence of Citron Rho-interacting kinase (O14578 whole entry): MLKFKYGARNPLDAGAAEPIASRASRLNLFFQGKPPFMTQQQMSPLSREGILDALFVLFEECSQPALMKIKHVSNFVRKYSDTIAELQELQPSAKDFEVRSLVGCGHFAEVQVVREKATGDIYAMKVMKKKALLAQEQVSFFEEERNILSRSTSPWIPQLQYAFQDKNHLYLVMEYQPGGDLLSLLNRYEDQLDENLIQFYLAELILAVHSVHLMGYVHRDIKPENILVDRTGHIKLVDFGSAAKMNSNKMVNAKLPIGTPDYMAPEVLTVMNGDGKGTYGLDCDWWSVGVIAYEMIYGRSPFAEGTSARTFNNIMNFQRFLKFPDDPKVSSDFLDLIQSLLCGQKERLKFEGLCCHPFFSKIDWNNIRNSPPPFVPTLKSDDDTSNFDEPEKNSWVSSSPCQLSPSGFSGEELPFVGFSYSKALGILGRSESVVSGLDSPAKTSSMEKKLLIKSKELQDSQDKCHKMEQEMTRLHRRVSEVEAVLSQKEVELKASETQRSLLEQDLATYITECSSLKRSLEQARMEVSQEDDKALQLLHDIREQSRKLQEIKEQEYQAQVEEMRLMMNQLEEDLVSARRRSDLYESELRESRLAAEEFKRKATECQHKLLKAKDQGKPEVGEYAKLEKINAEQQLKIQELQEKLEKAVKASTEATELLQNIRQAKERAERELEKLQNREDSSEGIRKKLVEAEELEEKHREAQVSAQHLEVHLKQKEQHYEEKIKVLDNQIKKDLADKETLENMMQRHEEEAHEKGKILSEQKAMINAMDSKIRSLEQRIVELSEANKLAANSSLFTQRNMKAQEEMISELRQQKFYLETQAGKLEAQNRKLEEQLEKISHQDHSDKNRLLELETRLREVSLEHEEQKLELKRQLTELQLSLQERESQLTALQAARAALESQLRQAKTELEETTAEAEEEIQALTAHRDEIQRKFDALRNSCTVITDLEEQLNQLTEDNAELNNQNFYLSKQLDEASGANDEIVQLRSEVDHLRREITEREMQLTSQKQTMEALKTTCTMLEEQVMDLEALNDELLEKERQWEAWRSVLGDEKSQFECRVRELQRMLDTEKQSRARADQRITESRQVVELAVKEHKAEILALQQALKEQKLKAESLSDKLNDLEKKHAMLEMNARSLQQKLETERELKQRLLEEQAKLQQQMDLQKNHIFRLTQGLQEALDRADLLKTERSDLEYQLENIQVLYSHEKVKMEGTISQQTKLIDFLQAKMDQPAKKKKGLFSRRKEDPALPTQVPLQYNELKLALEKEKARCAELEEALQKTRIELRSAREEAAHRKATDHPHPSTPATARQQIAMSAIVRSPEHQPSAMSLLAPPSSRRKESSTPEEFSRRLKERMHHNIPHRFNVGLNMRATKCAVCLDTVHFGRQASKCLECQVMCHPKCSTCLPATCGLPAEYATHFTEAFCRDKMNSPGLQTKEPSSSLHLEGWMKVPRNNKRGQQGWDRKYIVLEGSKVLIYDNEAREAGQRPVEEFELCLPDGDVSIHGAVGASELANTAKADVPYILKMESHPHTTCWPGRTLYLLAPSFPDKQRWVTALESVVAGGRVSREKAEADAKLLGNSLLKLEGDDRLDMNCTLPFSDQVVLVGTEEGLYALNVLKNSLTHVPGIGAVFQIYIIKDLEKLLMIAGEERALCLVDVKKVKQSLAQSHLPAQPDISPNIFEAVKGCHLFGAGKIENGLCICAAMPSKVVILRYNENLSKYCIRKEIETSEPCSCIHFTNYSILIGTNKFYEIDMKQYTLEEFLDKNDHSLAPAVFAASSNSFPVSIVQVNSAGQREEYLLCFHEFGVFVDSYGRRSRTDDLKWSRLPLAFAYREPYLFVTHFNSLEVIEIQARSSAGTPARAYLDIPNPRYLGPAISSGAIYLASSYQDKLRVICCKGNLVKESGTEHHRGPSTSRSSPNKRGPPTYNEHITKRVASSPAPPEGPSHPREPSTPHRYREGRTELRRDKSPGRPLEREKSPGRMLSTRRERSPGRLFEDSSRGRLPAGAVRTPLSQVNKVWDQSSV

With `COc1cc2nccc(Oc3ccc(NC(=O)Nc4cc(C)on4)c(Cl)c3)c2cc1OC` [TIVOZANIB], the Kd (in experiment [1]; at Rab-like protein 3; in experiment [2]; in experiment [3]; in experiment [4]; in experiment [5]) was > 30 µM (inactive) each time. The Kd in experiment [6] was > 30 µM (inactive).
Take `CCCS(=O)(=O)Nc1ccc(F)c(C(=O)c2c[nH]c3ncc(-c4ccc(Cl)cc4)cc23)c1F` [VEMURAFENIB]: the Kd (in experiment [1]; on Rab-like protein 3; in experiment [2]; in experiment [3]; in experiment [4]; in experiment [5]) was > 30 µM (inactive) in each case. Besides, the Kd in experiment [6] was > 30 µM (inactive).
Turning to `N[C@@H]1CCCN(c2c(/C=C3\SC(=O)NC3=O)cccc2-c2ccccc2)C1`, the Kd (in experiment [1]; on Rab-like protein 3; in experiment [2]; in experiment [3]; in experiment [4]; in experiment [5]) was > 30 µM (inactive) in each case. The Kd in experiment [6] is > 30 µM (inactive).
For the molecule `O=C(O)[C@]1(Cc2cccc(Nc3nccs3)n2)CC[C@@H](Oc2cccc(Cl)c2F)CC1` [MK-5108], the Kd (in experiment [1]; at Rab-like protein 3; in experiment [2]; in experiment [3]; in experiment [4]; in experiment [5]) was > 30 µM (inactive) each time. Also, in experiment [6], the Kd was 3.08 µM (active).
Turning to `COc1cc(OC)c(/C=C/S(=O)(=O)Cc2ccc(OC)c(NCC(=O)O)c2)c(OC)c1` [RIGOSERTIB], the Kd (in experiment [1]; on Rab-like protein 3; in experiment [2]; in experiment [3]; in experiment [4]; in experiment [5]) was > 30 µM (inactive) in each case. In addition, in experiment [6], the Kd was > 30 µM (inactive).
As to `CC[C@@H]1C(=O)N(C)c2cnc(Nc3ccc(C(=O)N[C@H]4CC[C@H](N5CCN(CC6CC6)CC5)CC4)cc3OC)nc2N1C(C)C` [VOLASERTIB], the Kd (in experiment [1]; at Rab-like protein 3; in experiment [2]; in experiment [3]; in experiment [4]; in experiment [5]) was > 30 µM (inactive) in each case. In addition, in experiment [6], the Kd was > 30 µM (inactive).
For `Cc1cc(-c2cc(O)ccc2Cl)cc2nnc(Nc3ccc(OCCN4CCCC4)cc3)nc12`, the Kd was > 30 µM (inactive) in experiment [1]; > 30 µM (inactive) at Rab-like protein 3; > 30 µM (inactive) in experiment [2]; > 30 µM (inactive) in experiment [3]; 0.003 µM (active) in experiment [4]; > 30 µM (inactive) in experiment [5]. Moreover, in experiment [6], the Kd was > 30 µM (inactive).
In the case of `OCCn1cc(-c2cnc3nnn(Cc4ccc5ncccc5c4)c3n2)cn1` [PF-04217903], the Kd (in experiment [1]; on Rab-like protein 3; in experiment [2]; in experiment [3]; in experiment [4]; in experiment [5]) was > 30 µM (inactive) each time. In experiment [6], the Kd was > 30 µM (inactive).
On to `Cc1cc2c(F)c(Oc3ncnn4cc(OC[C@@H](C)OC(=O)[C@H](C)N)c(C)c34)ccc2[nH]1` [BRIVANIB ALANINATE], for which the Kd (in experiment [1]; at Rab-like protein 3; in experiment [2]; in experiment [3]; in experiment [4]; in experiment [5]) was > 30 µM (inactive) in each case. For the same molecule, the Kd in experiment [6] is > 30 µM (inactive).
`CN1CCC(CNc2ccc3ncc(-c4cccc(OC(F)(F)F)c4)n3n2)CC1` [SGI-1776]: the Kd (in experiment [1]; on Rab-like protein 3; in experiment [2]; in experiment [3]; in experiment [4]; in experiment [5]) was > 30 µM (inactive) throughout. In experiment [6], the Kd is > 30 µM (inactive).
`CC[C@H](Nc1ncnc2[nH]cnc12)c1nc2cccc(F)c2c(=O)n1-c1ccccc1` [IDELALISIB]: the Kd (in experiment [1]; at Rab-like protein 3; in experiment [2]; in experiment [3]; in experiment [4]; in experiment [5]) was > 30 µM (inactive) throughout. Further, the Kd in experiment [6] was > 30 µM (inactive).
As for `COC(=O)N[C@@H](C)CNc1nccc(-c2cn(C(C)C)nc2-c2cc(Cl)cc(NS(C)(=O)=O)c2F)n1` [ENCORAFENIB], the Kd (in experiment [1]; on Rab-like protein 3; in experiment [2]; in experiment [3]; in experiment [4]; in experiment [5]) was > 30 µM (inactive) throughout. Also, in experiment [6], the Kd was > 30 µM (inactive).
As for `O=c1sn(-c2cccc3ccccc23)c(=O)n1Cc1ccccc1` [TIDEGLUSIB], the Kd (in experiment [1]; on Rab-like protein 3; in experiment [2]; in experiment [3]; in experiment [4]; in experiment [5]) was > 30 µM (inactive) throughout. Besides, the Kd in experiment [6] was > 30 µM (inactive).
As to `COC(=O)[C@@]1(O)C[C@H]2O[C@]1(C)n1c3ccccc3c3c4c(c5c6ccccc6n2c5c31)C(=O)NC4` [K-252A], the Kd in experiment [1] was 0.335 µM (active); at Rab-like protein 3, > 30 µM (inactive); in experiment [2], > 30 µM (inactive); in experiment [3] it was > 30 µM (inactive); in experiment [4] it was > 30 µM (inactive); in experiment [5], > 30 µM (inactive). The Kd in experiment [6] was > 30 µM (inactive).

By Kd is commonly meant the constant that tells how readily two partners part at equilibrium.
